These results are taken from patent US20050222146A1, “N-substituted-n-sulfonylaminocyclopropane compounds and pharmaceutical use thereof” (priority 2003, published 2005).

By IC50 is commonly meant the concentration needed to halve the response being measured.

Molecules are shown by their SMILES. A value given as a limit tells only on which side of the number the result lay.

For one test, the target named is T1, aggrecanase-1 (Homo sapiens, UniProt O75173).
T1 sequence (O75173 213-837): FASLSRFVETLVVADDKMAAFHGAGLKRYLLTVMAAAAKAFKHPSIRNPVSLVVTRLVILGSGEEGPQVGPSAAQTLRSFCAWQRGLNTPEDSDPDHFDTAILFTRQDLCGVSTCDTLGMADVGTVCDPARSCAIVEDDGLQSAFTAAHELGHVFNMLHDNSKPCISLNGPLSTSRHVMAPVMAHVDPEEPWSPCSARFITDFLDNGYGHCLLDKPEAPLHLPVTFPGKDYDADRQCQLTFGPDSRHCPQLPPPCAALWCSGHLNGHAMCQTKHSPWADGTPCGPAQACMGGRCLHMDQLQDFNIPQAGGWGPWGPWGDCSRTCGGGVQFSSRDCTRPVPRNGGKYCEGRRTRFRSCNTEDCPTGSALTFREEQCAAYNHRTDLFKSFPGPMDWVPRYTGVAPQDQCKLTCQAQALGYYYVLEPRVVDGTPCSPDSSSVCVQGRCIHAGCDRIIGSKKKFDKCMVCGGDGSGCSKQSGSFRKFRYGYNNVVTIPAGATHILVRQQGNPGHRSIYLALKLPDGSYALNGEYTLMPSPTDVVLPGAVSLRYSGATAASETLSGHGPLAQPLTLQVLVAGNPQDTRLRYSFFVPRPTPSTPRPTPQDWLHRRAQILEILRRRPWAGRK
Put plainly: Aggrecanase-1 inhibitory action, Particle Assay (GAG release from aggrecan-containing polyacrylamide particles). It counts as biochemical. The settings on record: 37° C. for 15 hr, read-out: Experimental Example 1 IC50 AG1. In a few lines: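 Enzyme and test compound (DMSO dilutions) in Tris-HCl buffer incubated with aggrecan-containing polyacrylamide particles at 37 °C for 15 hr. Released GAG in supernatant quantified with 1,9-dimethylmethylene blue at 595 nm against whale chondroitin sulfate standard; % inhibition versus enzyme-free and inhibitor-free wells gives IC50 (μM).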

The target of the next test is T2, MMP-1 (Homo sapiens, UniProt P03956).
T2 sequence (P03956 100-469): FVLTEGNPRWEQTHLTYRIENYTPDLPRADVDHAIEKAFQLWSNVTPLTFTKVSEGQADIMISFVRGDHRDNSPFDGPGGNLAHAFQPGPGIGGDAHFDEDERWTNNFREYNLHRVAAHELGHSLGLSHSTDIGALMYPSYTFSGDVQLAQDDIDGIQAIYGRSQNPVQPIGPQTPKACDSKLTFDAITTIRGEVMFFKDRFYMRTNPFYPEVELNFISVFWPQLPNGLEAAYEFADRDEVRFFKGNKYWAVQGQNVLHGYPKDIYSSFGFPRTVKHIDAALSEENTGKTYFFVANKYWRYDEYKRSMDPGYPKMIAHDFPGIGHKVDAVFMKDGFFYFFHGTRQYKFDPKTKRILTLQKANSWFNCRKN
The experiment in a line: MMP-1 inhibitory action, Type I collagen Activity Measurement kit (FITC-labeled collagen type I). It counts as biochemical. The note with it: 37° C. for 3 hr, read-out: Experimental Example 2 IC50 MMP1.

For the compound `CN([C@]1(C(=O)O)C[C@H]1c1cccc(Oc2ccccc2)c1)S(=O)(=O)c1ccc(-c2ccc(Cl)cc2)cc1` (relative stereo) [Example 1-53, (1R*,2S*)-1-[(4′-chloro-biphenyl-4-sulfonyl)-methyl-amino]-2-(3-phenoxy-phenyl)-cyclopropanecarboxylic acid], the values for the IC50 at aggrecanase-1 and on MMP-1 were less than 1000 nM and no less than 10 µM, respectively.

Consider `CC(C)(C)OC(=O)NCCN([C@]1(C(=O)O)C[C@H]1c1ccccc1)S(=O)(=O)c1ccc(-c2ccc(Cl)cc2)cc1` (relative stereo) [Example 1-4, (1R*,2S*)-1-[(2-tert-butoxycarbonylamino-ethyl)-(4′-chloro-biphenyl-4-sulfonyl)-amino]-2-phenyl-cyclopropanecarboxylic acid], for which the IC50 is less than 1000 nM at aggrecanase-1 and no less than 10 µM on MMP-1.

On to `COc1cccc([C@@H]2CC2(C(=O)O)N(CC(=O)O)S(=O)(=O)c2ccc(-c3ccc(Cl)cc3)cc2)c1` (stereo in doubt) [Example 1-21, (1R*,2S)-1-[carboxymethyl-(4′-chloro-biphenyl-4-sulfonyl)-amino]-2-(3-methoxy-phenyl)-cyclopropanecarboxylic acid], for which the half-inhibitory concentration (IC50) at aggrecanase-1 is less than 1000 nM; at MMP-1 it was no less than 10 µM.

With `O=C(O)[C@@]1(N(Cc2nsc(=O)[nH]2)S(=O)(=O)c2ccc(-c3ccc(Cl)cc3)cc2)C[C@H]1c1ccccc1` (relative stereo) [Example 1-71, (1R*,2S*)-1-[(4′-chloro-biphenyl-4-sulfonyl)-(5-oxo-4,5-dihydro-[1,2,4]thiadiazol-3-ylmethyl)-amino]-2-phenyl-cyclopropanecarboxylic acid], the results for the IC50 on aggrecanase-1 and on MMP-1 were less than 1000 nM and no less than 10 µM, respectively.

For the compound `O=C(O)[C@@]1(N(Cc2cccc(O)c2)S(=O)(=O)c2ccc(-c3ccc(Cl)cc3)cc2)C[C@H]1c1ccccc1` (relative stereo) [Example 1-17, (1R*,2S*)-1-[(4′-chloro-biphenyl-4-sulfonyl)-(3-hydroxy-benzyl)-amino]-2-phenyl-cyclopropanecarboxylic acid], the IC50 is less than 1000 nM on aggrecanase-1 and no less than 10 µM on MMP-1.

For the compound `O=C(O)c1cccc(CN([C@]2(C(=O)O)C[C@H]2c2ccccc2)S(=O)(=O)N2CCN(c3ccc(Cl)cc3)CC2)c1` (relative stereo) [Example 1-115, 3-({((1R*,2S*)-1-carboxy-2-phenyl-cyclopropyl)-[4-(4-chloro-phenyl)-piperazine-1-sulfonyl]-amino}-methyl)-benzoic acid], the figures for the IC50 on aggrecanase-1 and on MMP-1 were less than 1000 nM and no less than 10 µM, respectively.

Take `O=C(CO)NCCN([C@]1(C(=O)O)C[C@H]1c1ccccc1)S(=O)(=O)c1ccc(-c2ccc(Cl)cc2)cc1` (relative stereo) [Example 1-96, (1R*,2S*)-1-{(4′-chloro-biphenyl-4-sulfonyl)-[2-(2-hydroxy-acetylamino)-ethyl]-amino}-2-phenyl-cyclopropanecarboxylic acid]: the half-maximal inhibitory concentration (IC50) at aggrecanase-1 was less than 1000 nM; at MMP-1, no less than 10 µM.

Take `O=C(O)c1cccc(CN([C@]2(C(=O)O)C[C@H]2c2cccc(NC(=O)c3cccnc3)c2)S(=O)(=O)c2ccc(-c3ccc(Cl)cc3)cc2)c1` (relative stereo) [Example 1-99, 3-{[((1R*, 2S*)-1-carboxy-2-{3-[(pyridin-3-carbonyl)-amino]-phenyl}-cyclopropyl)-(4′-chloro-biphenyl-4-sulfonyl)-amino]-methyl}-benzoic acid]: the IC50 at aggrecanase-1 is less than 100 nM; on MMP-1 it was no less than 10 µM.

Take `CCN(CC)CCNc1cccc([C@@H]2C[C@@]2(C(=O)O)N(Cc2cccc(C(=O)O)c2)S(=O)(=O)c2ccc(-c3ccc(Cl)cc3)cc2)c1` (relative stereo) [Example 1-85, 3-{[{(1R*,2S*)-1-carboxy-2-[3-(2-diethylamino-ethylamino)-phenyl]-cyclopropyl}-(4′-chloro-biphenyl-4-sulfonyl)-amino]-methyl}-benzoic acid]: the results for the IC50 at aggrecanase-1 and on MMP-1 were less than 1000 nM and no less than 10 µM, respectively.
